How the values were obtained:
C. albicans Hsp90 NBD [1] = target: T1, C. albicans Hsp90 NBD (Candida albicans (strain SC5314 / ATCC MYA-2876) (Yeast), UniProt P46598); details: cited from earlier work
C. albicans Hsp90 NBD [2] = target: T1, C. albicans Hsp90 NBD; type: binding; details: equimolar protein and ligand (10 μM)
Method: Using recombinant proteins, assay-independent nanomolar inhibitory constants (Ki) were defined for these compounds. Binding of the compounds to their relevant NBD by thermal shift denaturation assays was also confirmed. Thermal shift assays were performed under saturating ligand conditions, i.e. equimolar concentrations (10 μM) of protein and ligand. As a result, they can provide only qualitative evidence of target binding, but not a quantitative measurement of ligand affinity. […] […]. C. neoformans or C. albicans Hsp90 NBD was combined with equimolar concentrations of the indicated bioactive inhibitors (10 μM) or DMSO control, in technical triplicates. The protein was heated from 25 to 98.6° C. at 0.2° C./5 s in the presence of Sypro Orange dye. All compounds induce an increase in melting temperature relative to the DMSO control, reported as ΔTm.
Protein thermal shift assays. Thermal melting curves were determined using a Protein Thermal Shift Kit (ThermoFisher #4462263), employing a CFX384 Real-Time PCR System (Bio-Rad, C1000 Touch Thermal Cycler). […] Temperature shift, ΔTm, was recorded as the difference between the Tm of the fungal Hsp90 NBD with compound minus Tm of the protein without compound.

C. neoformans Hsp90 NBD = C. neoformans Hsp90 NBD (Cryptococcus neoformans, UniProt J9VVA4); assay: biochemical; type: binding; details: SPR, 25° C., read-out: Biacore KD
Method: (§1) SPR assays. For SPR experiments, Hsp90 NBD expression constructs were modified to encode a C-terminal AviTag™ for site-specific on-column biotinylation with a BirA biotin-ligase kit (Avidity LLC; BirA-500). SPR experiments were performed on a Biacore T200 instrument at 25° C. Biotinylated Hsp90 NBD was diluted to 40 μg/mL and immobilized on a streptavidin chip (Sensor Chip SA, GE Healthcare) at a density of 2000-2500 response units (RU) on the biosensor surface. […] Resulting sensorgrams were analyzed with a fit to a 1:1 binding model, using BIA evaluation software.

[3] = tested on: C. neoformans (Strain H99); assay: Antifungal sensitivity testing (MIC), C. neoformans H99; type: cell-based
[4] = tested on: C. albicans clinical isolate (CaCi2); type: cell-based; details: moderately fluconazole-resistant clinical isolate of C. albicans (CaCi2), 8 μg/mL fluconazole
Method: (§2) Color scale bar: no growth inhibition (green) to complete inhibition (black). Each shaded box represents the mean of technical duplicates. The experiment was repeated as an independent biological replicate to confirm results.
(§3) Each shaded box represents the mean of technical duplicates. Relative viable cell number was monitored by standard dye reduction assay after 3-hr incubation with resazurin at 37° C. FIG. 6B: Following exposure to compounds, aliquots of the culture in each well were spotted onto compound-free YPD agar and plates incubated at 30° C. for an additional 24 hours before imaging to assess viability. The entire experiment consisting of growth in liquid culture followed by spotting onto YPD agar was repeated once.
Yeast strains and culture conditions. Strains used in this study were C. albicans CaCi2 (clinical isolate 2), [58] SC5314, [59] and C. neoformans H99. […] Active cultures were maintained on solid (2% agar) yeast extract peptone (YPD, 1% yeast extract, 2% bactopeptone, 2% glucose) at 4° C. for no more than one month.
(§4) Antifungal sensitivity testing. […] Each compound was tested in duplicate in at least two independent experiments. […] Plates were photographed after 24 h of incubation at 30° C.

[5] = tested on: C. albicans clinical isolate (CaCi2); assay: Fungicidal activity: spotting of MIC cultures onto compound-free YPD agar; type: cell-based; details: C. albicans CaCi2, spotted on YPD agar after 48 h exposure
Method: as §2, §3, §4

C. albicans Hsp90 NBD [6] = target: T1, C. albicans Hsp90 NBD; assay: biochemical; type: binding
Method: as §1

T1 sequence (P46598 1-240 limits assumed): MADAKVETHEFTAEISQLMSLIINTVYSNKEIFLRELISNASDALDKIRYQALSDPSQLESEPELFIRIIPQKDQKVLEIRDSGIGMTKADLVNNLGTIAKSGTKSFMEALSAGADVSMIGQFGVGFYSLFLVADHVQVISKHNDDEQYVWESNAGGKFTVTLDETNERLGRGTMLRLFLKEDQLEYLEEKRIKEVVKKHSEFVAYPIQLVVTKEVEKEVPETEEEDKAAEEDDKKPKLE
Chain of C. neoformans Hsp90 NBD (J9VVA4 1-699): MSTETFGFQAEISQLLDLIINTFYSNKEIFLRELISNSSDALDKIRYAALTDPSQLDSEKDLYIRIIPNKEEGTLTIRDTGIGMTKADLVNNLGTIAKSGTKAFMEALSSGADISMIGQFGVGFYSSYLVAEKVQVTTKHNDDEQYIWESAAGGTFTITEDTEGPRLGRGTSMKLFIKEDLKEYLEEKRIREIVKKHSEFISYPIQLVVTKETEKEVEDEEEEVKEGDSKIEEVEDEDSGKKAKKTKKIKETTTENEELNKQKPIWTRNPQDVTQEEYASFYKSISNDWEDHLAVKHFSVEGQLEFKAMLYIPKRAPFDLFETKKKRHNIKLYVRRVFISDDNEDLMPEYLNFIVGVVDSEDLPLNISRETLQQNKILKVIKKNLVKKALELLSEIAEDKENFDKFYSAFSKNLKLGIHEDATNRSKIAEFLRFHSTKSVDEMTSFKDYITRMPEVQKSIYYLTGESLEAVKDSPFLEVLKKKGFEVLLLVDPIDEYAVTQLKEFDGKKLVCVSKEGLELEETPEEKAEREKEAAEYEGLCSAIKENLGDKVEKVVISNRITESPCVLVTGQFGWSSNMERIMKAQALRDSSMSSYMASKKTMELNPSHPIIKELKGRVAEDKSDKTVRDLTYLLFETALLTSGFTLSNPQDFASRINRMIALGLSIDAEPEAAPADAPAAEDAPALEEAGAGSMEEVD

COc1ccc(CON=C2C=CC=CC3OC3CC(C)OC(=O)c3c(O)cc(O)cc3C2)cc1 (stereo not shown) [CMLD013075]
binding selectivity for the C. albicans Hsp90 NBD compared to the human ortholog (C. albicans Hsp90 NBD [1]): > 25 fold

Cn1nc(-c2ccc(OC(F)(F)F)cc2)cc1Nc1cc(O)cc(O)c1C(=O)N1Cc2ccccc2C1 [Compound 130, 4-(2,3-Dihydro-1H-isoindole-2-carbonyl)-5-((1-methyl-3-(4-(trifluoromethoxy)phenyl)-1H-pyrazol-5-yl)amino)benzene-1,3-diol]
C. albicans NBD ΔTm (C. albicans Hsp90 NBD [2]): 9 °C | Kd (C. neoformans Hsp90 NBD): 7 nM | MIC80 ([3]; Cryptococcus neoformans, read-out: C. neo MIC80): > 25 µM | MIC90 ([3]; Cryptococcus neoformans, read-out: C. neo MIC90): > 25 µM | C. neo Active (cells) ([3]; Yes/No call): No | MIC in combination with fluconazole [4]: 12.5 µM | fungicidal activity in combination with fluconazole [5]: converted the fungistatic activity of fluconazole to fungicidal

C[C@@H]1C[C@H]2O[C@@H]2/C=C\C=C\C(=O)Cc2c(Cl)c(O)cc(O)c2C(=O)O1 [Radicicol, radicicol]
Kd (C. albicans Hsp90 NBD [6]): 2 nM | Kd (C. neoformans Hsp90 NBD): 2 nM

From patent US11312722B2, “Hsp90 inhibitors and uses thereof” (TRUSTEES OF BOSTON UNIVERSITY, priority 2019, dated 2022)
